According to ChEMBL document CHEMBL1201862, “PubChem BioAssay data set” (2004):
Activity calls are given as the source filed them.

Columns and labels:
[1] = tested on: HEK293; test: cells; assay type: functional, cell-based; conditions: Homo sapiens
[2] = growth suppression of PTEN-null colon cells, dose response, cell-based, HCT116 PTEN knockout (AID 1047); assay type: functional;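 further: HCT116 colon tumor cells with PTEN knocked out; cells exposed to compound for 60 hours before readout; potency for loss of cell viability measured by luminescence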
[3] = inhibitors of PGC1a acetylation in cells, dose response, cell-based, cherry-picked samples (AID 720514); assay type: functional;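 further: potency may reflect raised or lowered acetylation signal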
[4] = inhibitors of firefly luciferase expression or activity, dose response, H4 neuroglioma cells, luminescence (AID 1990); assay type: functional, cell-based
[5] = tested on: INS1; test: beta cell apoptosis inhibitors, cytokine rescue, dose response, luminescence, retest (AID 449756); assay type: functional, cell-based; conditions: Rattus norvegicus;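 further: cell death triggered by IL-1 beta plus TNF-alpha plus IFN-gamma mixture; protective hits raise ATP signal compared with cytokine alone wells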
[6] = tested on: HEK293; test: NOD2 signaling inhibitors in MDP-stimulated cells, cell-based, uHTS, luminescence (AID 2001); assay type: functional; conditions: Homo sapiens
[7] = inhibitors of SNCA 5'UTR-driven reporter translation, confirmation, H4 neuroglioma cells, luminescence (AID 1988); assay type: functional, cell-based
[8] = biological target: Sphingosine 1-phosphate receptor 1 (Homo sapiens, UniProt P21453); assay type: functional;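 further: Tango beta-arrestin reporter U2OS cells stimulated with S1P near its EC80; inhibitor potency meaning antagonism of receptor activation by the natural agonist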
Chain of Sphingosine 1-phosphate receptor 1 (P21453 whole entry): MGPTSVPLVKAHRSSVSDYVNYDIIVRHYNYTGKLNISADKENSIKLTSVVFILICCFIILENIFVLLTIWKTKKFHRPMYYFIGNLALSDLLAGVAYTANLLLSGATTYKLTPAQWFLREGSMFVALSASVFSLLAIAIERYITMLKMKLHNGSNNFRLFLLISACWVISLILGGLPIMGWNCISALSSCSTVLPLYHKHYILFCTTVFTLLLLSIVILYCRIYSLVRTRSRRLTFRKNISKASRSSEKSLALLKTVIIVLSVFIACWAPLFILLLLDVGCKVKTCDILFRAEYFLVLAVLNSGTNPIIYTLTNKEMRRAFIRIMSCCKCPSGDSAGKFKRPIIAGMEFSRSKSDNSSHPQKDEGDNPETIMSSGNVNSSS

[9] = biological target: Sphingosine 1-phosphate receptor 4 (Homo sapiens, UniProt O95977); test: Fluorescence dose response cell-based high throughput screening assay for antagonists of the Sphingosine 1-Phosphate Receptor 4 (S1P4). [Related pubchem assays: 1524 (Confirmation in triplicates.), 1510 (Primary screen.)]; assay type: functional
Chain of Sphingosine 1-phosphate receptor 4 (O95977 whole entry): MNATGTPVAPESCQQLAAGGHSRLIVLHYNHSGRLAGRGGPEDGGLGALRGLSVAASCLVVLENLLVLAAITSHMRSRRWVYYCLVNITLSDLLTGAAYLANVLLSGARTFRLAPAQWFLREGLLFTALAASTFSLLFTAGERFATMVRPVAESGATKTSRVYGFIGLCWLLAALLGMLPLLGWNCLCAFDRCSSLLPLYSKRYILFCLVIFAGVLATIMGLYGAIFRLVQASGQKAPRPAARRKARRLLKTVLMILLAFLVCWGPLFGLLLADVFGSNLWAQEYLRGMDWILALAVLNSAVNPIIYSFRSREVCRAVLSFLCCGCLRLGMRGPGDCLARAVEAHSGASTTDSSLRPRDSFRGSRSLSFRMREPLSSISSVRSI

[10] = tested on: HEK293; test: NOD1 signaling inhibitors, primary screen, cell-based, luminescence, uHTS (AID 1578); assay type: functional; conditions: Homo sapiens
[11] = tested on: HEK293; test: cells; assay type: functional, cell-based; conditions: Homo sapiens; remark: listed apart in the source
[12] = Shn3 3'UTR reporter inhibitors, dose response, cell-based, Clone20 osteoblasts, firefly luciferase, cherry-picked (AID 624132); assay type: functional;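 further: firefly luciferase luminescence from reporter carrying the Shn3 3'UTR in osteoblasts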
[13] = tested on: HEK293; test: cells; assay type: functional, cell-based; conditions: Homo sapiens; remark: listed apart in the source
[14] = biological target: Beta-2 adrenergic receptor (Homo sapiens, UniProt P07550); test: beta2AR agonists driving receptor internalization, dose response, cell-based, FAP fluorogen, flow cytometry, cherry pick 1 (AID 588763); assay type: functional
Chain of Beta-2 adrenergic receptor (P07550 whole entry): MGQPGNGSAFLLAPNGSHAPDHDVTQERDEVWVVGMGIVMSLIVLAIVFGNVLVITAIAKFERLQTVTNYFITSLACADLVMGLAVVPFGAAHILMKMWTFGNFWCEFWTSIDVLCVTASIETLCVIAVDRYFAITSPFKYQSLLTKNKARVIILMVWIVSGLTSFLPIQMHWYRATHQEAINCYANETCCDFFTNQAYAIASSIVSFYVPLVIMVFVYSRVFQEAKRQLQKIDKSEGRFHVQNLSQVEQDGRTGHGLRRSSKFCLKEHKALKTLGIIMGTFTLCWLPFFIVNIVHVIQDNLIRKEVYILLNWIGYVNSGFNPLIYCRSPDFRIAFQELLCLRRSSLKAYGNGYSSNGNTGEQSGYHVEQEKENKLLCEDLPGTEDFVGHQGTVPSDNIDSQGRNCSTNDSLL

[15] = growth suppression of beta-catenin-knockout colon cells, dose response, cell-based, HCT116, human colon tumor (AID 1045); assay type: functional;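 further: HCT116 colon tumor cells with beta catenin knocked out; cells exposed to compound for 60 hours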
[16] = control 3'UTR Renilla luciferase suppression, dose response, counter-screen for Shn3 inhibitor project, cell-based, Clone20-Shn3RL, cherry-picked (AID 624133); assay type: functional
[17] = HepG2 cell cytotoxicity, dose response, cytotoxicity control for Shn3 inhibitor project, CellTiter-Glo, cherry-picked (AID 624134); assay type: functional, cell-based
[18] = biological target: Nucleotide-binding oligomerization domain-containing protein 2 (Homo sapiens, UniProt Q9HC29); test: NOD2 signaling inhibitors, cell-based, luminescence, uHTS, HEK293 (AID 1566); assay type: functional
Chain of Nucleotide-binding oligomerization domain-containing protein 2 (Q9HC29 whole entry, the tested form may be a part): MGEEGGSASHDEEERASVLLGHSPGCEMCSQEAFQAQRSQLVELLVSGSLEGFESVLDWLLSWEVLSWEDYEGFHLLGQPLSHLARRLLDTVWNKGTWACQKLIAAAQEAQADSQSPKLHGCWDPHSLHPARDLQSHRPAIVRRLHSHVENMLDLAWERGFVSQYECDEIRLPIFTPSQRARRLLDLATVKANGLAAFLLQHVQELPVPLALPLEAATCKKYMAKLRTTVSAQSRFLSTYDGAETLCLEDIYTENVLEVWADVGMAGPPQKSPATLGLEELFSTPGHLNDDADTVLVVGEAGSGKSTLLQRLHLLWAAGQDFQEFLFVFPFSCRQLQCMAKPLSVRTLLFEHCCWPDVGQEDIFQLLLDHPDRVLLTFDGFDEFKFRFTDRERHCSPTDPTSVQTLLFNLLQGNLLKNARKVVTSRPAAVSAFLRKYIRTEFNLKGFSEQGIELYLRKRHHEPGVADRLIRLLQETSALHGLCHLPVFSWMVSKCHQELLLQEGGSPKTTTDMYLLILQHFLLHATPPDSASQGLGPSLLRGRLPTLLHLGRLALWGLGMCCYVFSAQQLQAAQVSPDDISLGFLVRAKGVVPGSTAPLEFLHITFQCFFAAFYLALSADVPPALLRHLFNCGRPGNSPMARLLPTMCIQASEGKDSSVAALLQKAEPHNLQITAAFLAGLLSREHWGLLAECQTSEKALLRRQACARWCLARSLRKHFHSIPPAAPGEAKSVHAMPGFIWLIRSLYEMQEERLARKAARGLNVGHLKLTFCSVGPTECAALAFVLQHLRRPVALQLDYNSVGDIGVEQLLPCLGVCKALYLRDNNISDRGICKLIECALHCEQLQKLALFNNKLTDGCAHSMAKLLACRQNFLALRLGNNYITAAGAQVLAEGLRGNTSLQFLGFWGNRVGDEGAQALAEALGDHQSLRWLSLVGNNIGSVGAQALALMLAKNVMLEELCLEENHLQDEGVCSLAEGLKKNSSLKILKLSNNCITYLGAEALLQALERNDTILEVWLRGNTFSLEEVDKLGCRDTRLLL

[19] = Luminescence Cell-Based Dose Response HTS to Identify Inhibitors of 5'UTR Stem-Loop Driven Prion Protein mRNA Translation in H4 Neuroglioblastoma Cells. [Related pubchem assays: 1827 (Project Summary), 1813 (Primary HTS)]; assay type: functional
[20] = biological target: Nonstructural protein 1 (Influenza A virus, UniProt Q194T2); assay type: functional, Influenza A virus (A/California/07/2009(H1N1))
Chain of Nonstructural protein 1 (Q194T2 whole entry): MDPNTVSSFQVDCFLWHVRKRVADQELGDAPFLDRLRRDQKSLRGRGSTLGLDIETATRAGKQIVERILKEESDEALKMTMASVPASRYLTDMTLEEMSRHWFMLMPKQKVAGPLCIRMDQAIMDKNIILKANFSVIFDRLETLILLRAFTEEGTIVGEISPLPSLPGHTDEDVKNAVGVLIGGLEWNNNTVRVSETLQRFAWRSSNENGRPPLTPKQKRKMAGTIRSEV

[21] = biological target: Cysteine protease ATG4B (Homo sapiens, UniProt Q9Y4P1); assay type: functional;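 further: Fluorescence-based dose-response confirmation assay measuring inhibition of ATG4B activity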
Chain of Cysteine protease ATG4B (Q9Y4P1 whole entry): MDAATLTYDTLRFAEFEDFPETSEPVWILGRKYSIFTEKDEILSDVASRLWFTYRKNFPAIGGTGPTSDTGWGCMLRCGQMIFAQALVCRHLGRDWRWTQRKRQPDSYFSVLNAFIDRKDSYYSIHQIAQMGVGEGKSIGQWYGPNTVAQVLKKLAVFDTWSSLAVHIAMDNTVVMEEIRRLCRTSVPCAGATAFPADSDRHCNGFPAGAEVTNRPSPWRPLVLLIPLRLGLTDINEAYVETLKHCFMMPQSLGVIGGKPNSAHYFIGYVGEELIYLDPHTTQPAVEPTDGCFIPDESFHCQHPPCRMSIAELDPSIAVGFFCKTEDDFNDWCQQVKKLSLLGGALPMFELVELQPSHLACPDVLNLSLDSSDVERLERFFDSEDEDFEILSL

[22] = biological target: Phospholipase A2 (Homo sapiens, UniProt P04054); assay type: functional;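 further: confirmatory dose-response counterscreen on phospholipase A2, testing hits that came from an ultra-high-throughput screen for ATG4B inhibitors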
Chain of Phospholipase A2 (P04054 whole entry): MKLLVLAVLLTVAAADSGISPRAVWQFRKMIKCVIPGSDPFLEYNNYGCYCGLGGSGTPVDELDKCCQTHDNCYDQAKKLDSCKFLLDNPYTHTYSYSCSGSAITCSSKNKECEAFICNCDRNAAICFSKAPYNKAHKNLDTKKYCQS

[23] = biological target: T1, Beta-adrenergic receptor kinase 1 (Homo sapiens, UniProt P25098); test: GRK2 inhibitors displacing RNA aptamer, dose response, biochemical, flow cytometry beads, FAM-aptamer, powder set 1 (AID 588720)
T1 sequence (P25098 whole entry): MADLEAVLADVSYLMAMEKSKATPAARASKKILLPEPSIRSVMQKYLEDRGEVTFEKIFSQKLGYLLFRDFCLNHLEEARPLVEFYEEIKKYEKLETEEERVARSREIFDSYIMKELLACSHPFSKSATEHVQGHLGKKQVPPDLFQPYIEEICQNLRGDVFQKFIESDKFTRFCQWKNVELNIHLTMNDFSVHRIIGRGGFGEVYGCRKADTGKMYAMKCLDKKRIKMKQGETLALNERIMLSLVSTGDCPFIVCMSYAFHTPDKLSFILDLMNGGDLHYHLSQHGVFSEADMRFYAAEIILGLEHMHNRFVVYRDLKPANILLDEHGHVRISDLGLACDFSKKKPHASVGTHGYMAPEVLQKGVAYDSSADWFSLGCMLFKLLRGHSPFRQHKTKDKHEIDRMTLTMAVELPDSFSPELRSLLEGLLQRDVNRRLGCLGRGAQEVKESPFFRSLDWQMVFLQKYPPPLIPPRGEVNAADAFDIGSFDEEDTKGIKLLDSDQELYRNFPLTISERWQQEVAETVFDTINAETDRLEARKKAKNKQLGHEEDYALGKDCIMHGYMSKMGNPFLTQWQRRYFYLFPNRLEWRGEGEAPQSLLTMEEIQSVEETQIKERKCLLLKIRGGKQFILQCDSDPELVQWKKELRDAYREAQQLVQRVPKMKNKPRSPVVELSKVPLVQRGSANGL

[24] = biological target: T1, Beta-adrenergic receptor kinase 1; test: aptamer displacement from bead-bound GRK2 – biochemical, cherry pick 1, bead flow cytometry, dose response (AID 504500)
[25] = biological target: T2, Phospholipase D1 (Homo sapiens, UniProt Q13393); test: PLD1 purified enzyme concentration response. [Related pubchem assays (depositor defined):AID588854]; assay type: functional
T2 sequence (Q13393 whole entry): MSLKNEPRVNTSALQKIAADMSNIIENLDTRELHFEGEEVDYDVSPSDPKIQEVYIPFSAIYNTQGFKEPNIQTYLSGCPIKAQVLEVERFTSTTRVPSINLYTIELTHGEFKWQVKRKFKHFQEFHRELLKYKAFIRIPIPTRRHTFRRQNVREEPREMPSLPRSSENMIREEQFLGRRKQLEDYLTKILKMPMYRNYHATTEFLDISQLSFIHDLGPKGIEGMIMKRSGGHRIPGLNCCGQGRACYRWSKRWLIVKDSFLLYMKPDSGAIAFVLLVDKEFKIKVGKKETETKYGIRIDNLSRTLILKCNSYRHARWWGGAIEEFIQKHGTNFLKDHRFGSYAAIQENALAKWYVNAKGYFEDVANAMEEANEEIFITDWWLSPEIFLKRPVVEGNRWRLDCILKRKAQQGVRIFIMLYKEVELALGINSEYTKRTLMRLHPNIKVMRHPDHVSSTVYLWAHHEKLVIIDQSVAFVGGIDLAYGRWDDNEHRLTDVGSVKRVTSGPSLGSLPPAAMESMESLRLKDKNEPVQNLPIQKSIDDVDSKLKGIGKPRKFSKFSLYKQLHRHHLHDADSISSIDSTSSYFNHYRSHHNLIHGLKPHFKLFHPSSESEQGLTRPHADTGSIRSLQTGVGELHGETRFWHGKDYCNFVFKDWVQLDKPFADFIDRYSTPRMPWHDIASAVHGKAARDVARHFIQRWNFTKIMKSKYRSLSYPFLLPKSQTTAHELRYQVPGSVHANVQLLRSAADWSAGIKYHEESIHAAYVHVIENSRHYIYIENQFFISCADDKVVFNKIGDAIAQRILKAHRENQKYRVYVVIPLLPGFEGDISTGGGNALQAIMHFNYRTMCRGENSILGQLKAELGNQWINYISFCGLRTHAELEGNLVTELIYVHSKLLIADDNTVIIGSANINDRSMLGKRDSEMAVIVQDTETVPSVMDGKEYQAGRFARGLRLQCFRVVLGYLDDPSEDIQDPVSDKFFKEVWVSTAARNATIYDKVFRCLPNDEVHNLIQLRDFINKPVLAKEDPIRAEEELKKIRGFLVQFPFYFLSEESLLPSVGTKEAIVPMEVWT

[26] = biological target: Phospholipase D2 (Homo sapiens, UniProt O14939); test: PLD2 purified enzyme concentration response. [Related pubchem assays (depositor defined):AID588854]; assay type: functional
Chain of Phospholipase D2 (O14939 whole entry): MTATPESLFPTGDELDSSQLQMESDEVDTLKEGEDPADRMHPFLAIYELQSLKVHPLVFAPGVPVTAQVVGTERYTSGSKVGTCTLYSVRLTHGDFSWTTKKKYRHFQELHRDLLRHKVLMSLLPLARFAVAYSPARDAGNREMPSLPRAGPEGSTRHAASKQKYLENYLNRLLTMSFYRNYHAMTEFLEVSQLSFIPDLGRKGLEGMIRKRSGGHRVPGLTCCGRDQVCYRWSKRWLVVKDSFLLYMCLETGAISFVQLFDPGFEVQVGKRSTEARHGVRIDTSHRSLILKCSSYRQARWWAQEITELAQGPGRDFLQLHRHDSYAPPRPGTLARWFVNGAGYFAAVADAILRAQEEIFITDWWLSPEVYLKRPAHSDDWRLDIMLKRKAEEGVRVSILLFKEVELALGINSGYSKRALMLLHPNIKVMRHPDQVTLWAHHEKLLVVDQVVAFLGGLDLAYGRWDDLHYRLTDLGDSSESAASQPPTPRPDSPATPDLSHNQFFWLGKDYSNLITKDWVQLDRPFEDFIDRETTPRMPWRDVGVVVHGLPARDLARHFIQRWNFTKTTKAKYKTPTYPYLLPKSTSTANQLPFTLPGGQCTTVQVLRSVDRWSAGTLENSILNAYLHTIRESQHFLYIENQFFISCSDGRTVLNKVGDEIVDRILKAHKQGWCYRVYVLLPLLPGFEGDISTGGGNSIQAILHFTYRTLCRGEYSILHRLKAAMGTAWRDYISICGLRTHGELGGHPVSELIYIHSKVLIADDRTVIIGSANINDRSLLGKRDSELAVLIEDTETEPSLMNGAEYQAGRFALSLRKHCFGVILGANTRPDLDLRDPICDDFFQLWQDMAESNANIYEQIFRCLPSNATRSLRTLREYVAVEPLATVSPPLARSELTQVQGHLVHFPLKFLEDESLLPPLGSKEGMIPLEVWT

[27] = tested on: Jurkat; test: SAR Analysis of small molecule inhibitors of […] specific antigen receptor-induced NF-kB activation in a Jurkat cell line using a luminescence assay - Set 3. [Related pubchem assays (depositor defined):AID435022, AID435025, AID465]; assay type: functional, cell-based; conditions: Homo sapiens
[28] = tested on: HEK293; test: cytotoxicity in HEK293T NF-kB-Luc cells, SAR follow-up, cytotoxicity control for NF-kB activator project, cell-based, resazurin fluorescence (AID 493251); assay type: functional; conditions: Homo sapiens
[29] = tested on: HEK293; test: SAR Analysis of small molecule inhibitors of B-cell specific antigen receptor-induced NF-kB activation in a HEK-293T cell line using a luminescence assay - Set 2. [Related pubchem assays (depositor defined):AID435022, AID435025, AID489021]; assay type: functional, cell-based; conditions: Homo sapiens
[30] = biological target: T3, Hexokinase-1 (Homo sapiens, UniProt P19367); test: SAR analysis of small molecule inhibitors of hexokinase domain containing I (HKDC1) in the hexokinase 1 selectivity assay. [Related pubchem assays (depositor defined):AID493160, AID493190]; assay type: functional
T3 sequence (P19367 whole entry): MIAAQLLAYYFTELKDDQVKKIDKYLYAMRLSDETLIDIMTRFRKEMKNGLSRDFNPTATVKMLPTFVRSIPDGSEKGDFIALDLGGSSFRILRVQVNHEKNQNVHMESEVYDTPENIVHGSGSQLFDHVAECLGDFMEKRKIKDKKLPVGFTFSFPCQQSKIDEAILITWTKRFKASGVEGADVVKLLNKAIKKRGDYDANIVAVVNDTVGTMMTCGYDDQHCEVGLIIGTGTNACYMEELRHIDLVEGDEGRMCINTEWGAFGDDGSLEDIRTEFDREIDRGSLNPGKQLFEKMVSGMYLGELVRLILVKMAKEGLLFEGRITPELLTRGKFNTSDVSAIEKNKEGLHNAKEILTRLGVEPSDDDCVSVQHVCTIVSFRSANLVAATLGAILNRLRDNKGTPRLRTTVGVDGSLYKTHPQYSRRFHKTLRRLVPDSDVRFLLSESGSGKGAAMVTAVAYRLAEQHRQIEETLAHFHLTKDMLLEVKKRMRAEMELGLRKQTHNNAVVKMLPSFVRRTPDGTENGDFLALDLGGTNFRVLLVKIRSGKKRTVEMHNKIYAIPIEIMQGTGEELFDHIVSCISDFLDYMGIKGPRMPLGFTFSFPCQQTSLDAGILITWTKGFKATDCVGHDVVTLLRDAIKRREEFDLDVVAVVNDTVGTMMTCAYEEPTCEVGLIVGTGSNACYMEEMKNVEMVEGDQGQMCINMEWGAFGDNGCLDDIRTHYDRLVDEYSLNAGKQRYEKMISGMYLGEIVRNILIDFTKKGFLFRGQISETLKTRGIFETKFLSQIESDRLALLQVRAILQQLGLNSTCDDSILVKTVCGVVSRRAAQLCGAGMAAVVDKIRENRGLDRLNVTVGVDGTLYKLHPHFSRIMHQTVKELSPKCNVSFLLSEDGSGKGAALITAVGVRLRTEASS

[31] = biological target: T4, Hexokinase HKDC1 (Homo sapiens, UniProt Q2TB90); test: SAR analysis of small molecule inhibitors of hexokinase domain containing I (HKDC1). [Related pubchem assays (depositor defined):AID493160, AID493190]; assay type: functional
T4 sequence (Q2TB90 whole entry): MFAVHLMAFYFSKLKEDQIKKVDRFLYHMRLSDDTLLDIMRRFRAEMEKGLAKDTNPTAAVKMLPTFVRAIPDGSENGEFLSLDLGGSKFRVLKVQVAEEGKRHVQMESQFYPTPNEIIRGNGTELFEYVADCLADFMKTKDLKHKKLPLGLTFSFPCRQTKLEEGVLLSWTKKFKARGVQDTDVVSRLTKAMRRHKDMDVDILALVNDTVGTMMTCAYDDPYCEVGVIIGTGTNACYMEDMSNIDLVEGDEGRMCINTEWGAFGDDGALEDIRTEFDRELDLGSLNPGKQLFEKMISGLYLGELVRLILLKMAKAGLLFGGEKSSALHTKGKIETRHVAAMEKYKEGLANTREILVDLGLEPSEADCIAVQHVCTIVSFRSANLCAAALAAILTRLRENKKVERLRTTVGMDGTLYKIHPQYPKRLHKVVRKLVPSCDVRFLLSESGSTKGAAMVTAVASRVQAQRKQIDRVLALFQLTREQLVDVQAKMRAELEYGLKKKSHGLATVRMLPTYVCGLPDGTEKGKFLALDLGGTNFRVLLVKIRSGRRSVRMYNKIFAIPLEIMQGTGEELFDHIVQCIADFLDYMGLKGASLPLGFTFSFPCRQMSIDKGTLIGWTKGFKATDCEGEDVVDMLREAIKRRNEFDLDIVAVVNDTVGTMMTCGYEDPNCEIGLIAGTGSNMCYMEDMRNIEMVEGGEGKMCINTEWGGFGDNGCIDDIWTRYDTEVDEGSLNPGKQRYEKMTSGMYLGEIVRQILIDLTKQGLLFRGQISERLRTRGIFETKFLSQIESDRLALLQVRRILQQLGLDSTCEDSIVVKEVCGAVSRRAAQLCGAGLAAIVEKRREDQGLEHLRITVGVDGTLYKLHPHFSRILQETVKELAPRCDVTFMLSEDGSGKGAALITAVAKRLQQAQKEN

Cc1ccc(-c2nc(NC(=O)c3nn(C)cc3[N+](=O)[O-])sc2C)cc1
active: EC50 [2] 0.4 µM | AC50 [3] 3.81 µM | EC50 [4] 5.46 µM | AC50 [5] 5.22 µM | IC50 [6] 2.14 µM | EC50 [7] 1.84 µM | IC50 [9] 1.07 µM | EC50 [10] 5.58 µM | IC50 [11] 14.7 µM | AC50 [12] 1.3 µM | IC50 [13] 2.48 µM | EC50 [14] 8.09 µM | EC50 [15] 0.321 µM | AC50 [16] 6.15 µM | AC50 [17] 26.8 µM | EC50 [18] 3 µM | EC50 [19] 5.05 µM
21 µM (not active): IC50 [8]
inactive: IC50 [1] > 20 µM

COCCNC(=O)/C(C#N)=C/c1c(N2CCN(c3ccccc3)CC2)nc2c(C)cccn2c1=O
active: IC50 [20] > 100 µM | IC50 [21] 14.7 µM | IC50 [22] 9.79 µM

COc1ccc(CNC(=O)CCS(=O)(=O)c2ccc(Br)cc2)cc1
active: EC50 [23] 3 µM | EC50 [24] 0.7 µM

COc1cc(C(=O)NCCN2CCC3(CC2)C(=O)NCN3c2ccccc2)ccc1N
active: IC50 [25] 1.08 µM | IC50 [26] 0.17 µM

CCOc1ccc(-c2nc(CSCC(=O)NCCC3=CCCCC3)c(C)o2)cc1
inactive: IC50 [28] 42.4 µM
active: IC50 [27] 9.13 µM | IC50 [29] 17.6 µM

COc1cc2c(cc1OC)-c1cc(NCc3ccc(F)cc3)nc(=O)n1CC2
inactive: IC50 [30] > 80 µM | IC50 [31] > 80 µM
